Results published in article PMC4593760 (Nuclear medicine and biology, 2015).

Biological target: NTR1 (Homo sapiens, UniProt P30989)
Experiment: In vitro competitive binding on HT-29 cells against 177Lu-N1

Sequence of NTR1 (P30989 whole entry): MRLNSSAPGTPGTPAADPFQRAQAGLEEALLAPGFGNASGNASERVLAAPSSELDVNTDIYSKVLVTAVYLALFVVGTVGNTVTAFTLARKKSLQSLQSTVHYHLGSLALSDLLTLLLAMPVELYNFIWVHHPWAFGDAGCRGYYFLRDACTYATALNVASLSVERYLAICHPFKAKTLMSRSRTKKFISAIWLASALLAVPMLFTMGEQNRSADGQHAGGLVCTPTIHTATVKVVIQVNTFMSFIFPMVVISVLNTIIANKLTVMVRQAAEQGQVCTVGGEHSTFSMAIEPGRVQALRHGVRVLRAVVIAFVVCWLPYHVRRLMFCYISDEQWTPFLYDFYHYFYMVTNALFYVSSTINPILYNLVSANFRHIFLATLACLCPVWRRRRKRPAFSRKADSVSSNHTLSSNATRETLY

Cc1cc(O)cc(C)c1C[C@H](NC(=O)[C@@H]1CCCN1C(=O)[C@H](CCCNC(=N)N)NC(=O)[C@H](CCCNC(=N)N)N(C)C(=O)[C@@H]1CCCN1C(=O)[C@H](CCCCN)NC(=O)CCNC(=O)CN1CCN(CC(=O)O)CCN(CC(=O)O)CCN(CC(=O)O)CC1)C(=O)N[C@H](C(=O)N[C@@H](CC(C)C)C(=O)O)C(C)(C)C [N1, DOTA-β-Ala-Lys-Pro-(N-Me)Arg-Arg-Pro-Dmt-Tle-Leu-OH] gave an IC50 of 27.6 ± 1.3 nM.
For Cc1cc(O)cc(C)c1C[C@H](NC(=O)[C@@H]1CCCN1C(=O)[C@H](CCCNC(=N)N)NC(=O)[C@H](CCCNC(=N)N)N(C)C(=O)[C@@H]1CCCN1C(=O)[C@H](CCCCN)NC(=O)CN1CCN(CC(=O)O)CCN(CC(=O)O)CCN(CC(=O)O)CC1)C(=O)N[C@H](C(=O)N[C@@H](CC(C)C)C(=O)O)C(C)(C)C [N0, DOTA-Lys-Pro-(N-Me)Arg-Arg-Pro-Dmt-Tle-Leu-OH], the IC50 was 52.3 ± 1.5 nM.
